# Results reported in PubChem BioAssay AID2060610 (Molecular Pharmacology Branch, DTP, NCI, 2025).
# Several values for one entry are separate records, joined by “and”; a condition that tells them apart may be missing. Equal values may be shown once.
# Tested on: 616215-338-R-J1-PDC complex spheroids, viability % test/control
# Test: Anticancer human tumor 616215-338-R-J1-PDC patient-derived colon adenocarcinoma cell line growth inhibition [CLK]
# Conditions: for viability, T/C: stronger effect = lower value
# Summary of the method: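 Multi-cell-type spheroids combined patient-derived tumor cells with HUVEC endothelial cells and human mesenchymal stem cells. Paired agents were dosed in half-log steps down from about clinical Cmax, or from 10 microM where Cmax was unknown.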
# [1] = curve of first compound, second compound 0.0316 µM
# [2] = curve of first compound, second compound 0.1 µM
# [3] = curve of first compound, second compound 0.316 µM
# [4] = curve of first compound, second compound 1 µM
# [5] = curve of first compound, second compound 3.16 µM
# [6] = curve of first compound, second compound 10 µM
# [7] = second compound 0.0316 µM, first compound 0.0316 µM
# [8] = second compound 0.0316 µM, first compound 0.1 µM
# [9] = second compound 0.0316 µM, first compound 0.316 µM
# [10] = second compound 0.0316 µM, first compound 1 µM
# [11] = second compound 0.1 µM, first compound 0.0316 µM
# [12] = second compound 0.1 µM, first compound 0.1 µM
# [13] = second compound 0.1 µM, first compound 0.316 µM
# [14] = second compound 0.1 µM, first compound 1 µM
# [15] = second compound 0.316 µM, first compound 0.0316 µM
# [16] = second compound 0.316 µM, first compound 0.1 µM
# [17] = second compound 0.316 µM, first compound 0.316 µM
# [18] = second compound 0.316 µM, first compound 1 µM
# [19] = second compound 1 µM, first compound 0.0316 µM
# [20] = second compound 1 µM, first compound 0.1 µM
# [21] = second compound 1 µM, first compound 0.316 µM
# [22] = second compound 1 µM, first compound 1 µM
# [23] = second compound 3.16 µM, first compound 0.0316 µM
# [24] = second compound 3.16 µM, first compound 0.1 µM
# [25] = second compound 3.16 µM, first compound 0.316 µM
# [26] = second compound 3.16 µM, first compound 1 µM
# [27] = second compound 10 µM, first compound 0.0316 µM
# [28] = second compound 10 µM, first compound 0.1 µM
# [29] = second compound 10 µM, first compound 0.316 µM
# [30] = second compound 10 µM, first compound 1 µM
# 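Note: spheroids exposed to agents for 7 days.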
# 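Throughout, for viability, T/C: 100% = DMSO vehicle wells.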
structure (smiles),measurement,setting,value
CC1COCCN1c1cc(C2(S(C)(=N)=O)CC2)nc(-c2ccnc3[nH]ccc23)n1 (configuration not stated) + CN1CCN(c2cc(C(=O)Nc3cc4cc(-c5cnn(C)c5)ccc4cn3)ccn2)CC1,IC50,[1],> 10000 nM
same,IC50,[2],4970 nM
same,IC50,[3],< 31.6 nM
same,IC50,[4],< 31.6 nM
same,IC50,[5],< 31.6 nM
same,IC50,[6],< 31.6 nM
same,"viability, T/C",[7],98.6%
same,"viability, T/C",[8],99.8%
same,"viability, T/C",[9],95.3%
same,"viability, T/C",[10],105%
same,"viability, T/C","second compound 0.0316 µM, first compound 3.16 µM",102%
same,"viability, T/C","second compound 0.0316 µM, first compound 10 µM",54.7%
same,"viability, T/C",[11],117%
same,"viability, T/C",[12],106%
same,"viability, T/C",[13],96.6%
same,"viability, T/C",[14],102%
same,"viability, T/C","second compound 0.1 µM, first compound 3.16 µM",60.5%
same,"viability, T/C","second compound 0.1 µM, first compound 10 µM",33.5%
same,"viability, T/C",[15],34.7%
same,"viability, T/C",[16],29.4%
same,"viability, T/C",[17],28.4%
same,"viability, T/C",[18],21.3%
same,"viability, T/C","second compound 0.316 µM, first compound 3.16 µM",23.9%
same,"viability, T/C","second compound 0.316 µM, first compound 10 µM",15.4%
same,"viability, T/C",[19],0.14%
same,"viability, T/C",[20],2.28%
same,"viability, T/C",[21],2.21%
same,"viability, T/C",[22],0.15%
same,"viability, T/C","second compound 1 µM, first compound 3.16 µM",0.1%
same,"viability, T/C","second compound 1 µM, first compound 10 µM",2.62%
same,"viability, T/C",[23],0.14%
same,"viability, T/C",[24],0.12%
same,"viability, T/C",[25],0.15%
same,"viability, T/C",[26],0.14%
same,"viability, T/C","second compound 3.16 µM, first compound 3.16 µM",2.05%
same,"viability, T/C","second compound 3.16 µM, first compound 10 µM",3.08%
same,"viability, T/C",[27],0.16%
same,"viability, T/C",[28],0.15%
same,"viability, T/C",[29],0.21%
same,"viability, T/C",[30],0.23%
same,"viability, T/C","second compound 10 µM, first compound 3.16 µM",0.23%
same,"viability, T/C","second compound 10 µM, first compound 10 µM",0.24%
CC(C)CC(NC(=O)C(Cc1ccccc1)NC(=O)c1cnccn1)B(O)O (configuration not stated),"viability, T/C",compound 0.000949 µM,109% and 107%
same,"viability, T/C",compound 0.003 µM,109% and 97.9%
same,"viability, T/C",compound 0.00949 µM,0.2% and 0.21%
same,"viability, T/C",compound 0.03 µM,0.18% and 0.25%
same,"viability, T/C",compound 0.0949 µM,0.12% and 0.23%
same,"viability, T/C",compound 0.3 µM,0.85% and 0.21%
same,IC50,curve of compound,5.61 nM and 5.28 nM
Cn1ncnc1[C@H]1c2n[nH]c(=O)c3cc(F)cc(c23)N[C@@H]1c1ccc(F)cc1,"viability, T/C",compound 0.000316 µM,92% and 98.4%
same,"viability, T/C",compound 0.001 µM,105% and 97.6%
same,"viability, T/C",compound 0.00316 µM,102% and 94.1%
same,"viability, T/C",compound 0.01 µM,95% and 95.3%
same,"viability, T/C",compound 0.0316 µM,116% and 114%
same,"viability, T/C",compound 0.1 µM,106% and 116%
same,IC50,curve of compound,> 100 nM
CCc1c2c(nc3ccc(O)cc13)-c1cc3c(c(=O)n1C2)COC(=O)[C@]3(O)CC + CN1CCN(c2cc(C(=O)Nc3cc4cc(-c5cnn(C)c5)ccc4cn3)ccn2)CC1,IC50,[1],9.64 nM
same,IC50,[2],3.61 nM
same,IC50,[3],< 3.16 nM
same,IC50,[4],< 3.16 nM
same,IC50,[5],< 3.16 nM
same,IC50,[6],< 3.16 nM
same,"viability, T/C","second compound 0.0316 µM, first compound 0.00316 µM",98.2%
same,"viability, T/C","second compound 0.0316 µM, first compound 0.01 µM",42.2%
same,"viability, T/C",[7],32.1%
same,"viability, T/C",[8],18%
same,"viability, T/C",[9],12.9%
same,"viability, T/C",[10],4.92%
same,"viability, T/C","second compound 0.1 µM, first compound 0.00316 µM",50.8%
same,"viability, T/C","second compound 0.1 µM, first compound 0.01 µM",40.2%
same,"viability, T/C",[11],19.1%
same,"viability, T/C",[12],13.1%
same,"viability, T/C",[13],14.1%
same,"viability, T/C",[14],1.26%
same,"viability, T/C","second compound 0.316 µM, first compound 0.00316 µM",34.2%
same,"viability, T/C","second compound 0.316 µM, first compound 0.01 µM",17.8%
same,"viability, T/C",[15],13.5%
same,"viability, T/C",[16],8.84%
same,"viability, T/C",[17],1.45%
same,"viability, T/C",[18],1.92%
same,"viability, T/C","second compound 1 µM, first compound 0.00316 µM",0.13%
same,"viability, T/C","second compound 1 µM, first compound 0.01 µM",0.13%
same,"viability, T/C",[19],3.09%
same,"viability, T/C",[20],0.08%
same,"viability, T/C",[21],0.06%
same,"viability, T/C",[22],1.66%
same,"viability, T/C","second compound 3.16 µM, first compound 0.00316 µM",0.07%
same,"viability, T/C","second compound 3.16 µM, first compound 0.01 µM",0.12%
same,"viability, T/C",[23],1.53%
same,"viability, T/C",[24],0.09%
same,"viability, T/C",[25],3.53%
same,"viability, T/C",[26],4.86%
same,"viability, T/C","second compound 10 µM, first compound 0.00316 µM",0.08%
same,"viability, T/C","second compound 10 µM, first compound 0.01 µM",0.13%
same,"viability, T/C",[27],0.18%
same,"viability, T/C",[28],0.13%
same,"viability, T/C",[29],3.18%
same,"viability, T/C",[30],1.61%
CC1COCCN1c1cc(C2(S(C)(=N)=O)CC2)nc(-c2ccnc3[nH]ccc23)n1 (configuration not stated),"viability, T/C",compound 0.0316 µM,94.9% and 102%
same,"viability, T/C",compound 0.1 µM,107% and 96.5%
same,"viability, T/C",compound 0.316 µM,97.7% and 96.1%
same,"viability, T/C",compound 1 µM,99.8% and 94.2%
same,"viability, T/C",compound 3.16 µM,105% and 106%
same,"viability, T/C",compound 10 µM,78.6% and 92.2%
same,IC50,curve of compound,> 10000 nM
COc1ccc([C@@H](O)c2cc(-c3ncnc4cc(N5CCOCC5)ccc34)c(F)cc2Cl)nn1,"viability, T/C",compound 0.0316 µM,102% and 93.5%
same,"viability, T/C",compound 0.1 µM,106% and 104%
same,"viability, T/C",compound 0.316 µM,111% and 108%
same,"viability, T/C",compound 1 µM,107% and 99.3%
same,"viability, T/C",compound 3.16 µM,112% and 118%
same,"viability, T/C",compound 10 µM,77.8% and 78.4%
same,IC50,curve of compound,> 10000 nM
